From ChEMBL document CHEMBL1135516, “Three-dimensional quantitative structure-activity relationship analysis of ligand binding to human sequence antidigoxin monoclonal antibodies using comparative molecular field analysis” (J Med Chem, 2002)

Legend:
[1] = tested on: Monoclonal antibody (mAb); test: Binding affinity against human monoclonal antibody (mAb)-7F2
[2] = target: Monoclonal antibody (mAb); test: Binding affinity against Monoclonal antibody mAB-1B3 using [3H]digitoxin as radioligand
[3] = target: Monoclonal antibody (mAb); test: Binding affinity against Monoclonal antibody mAB-1B3 using [3H]digoxin as radioligand
[4] = tested on: Monoclonal antibody (mAb); test: Binding affinity against human monoclonal antibody (mAb)-11E6
[5] = tested on: Monoclonal antibody (mAb); test: Binding affinity against human monoclonal antibody (mAb)-5C2
[6] = tested on: Monoclonal antibody (mAb); test: Binding affinity against murine monoclonal antibody (mAb)-40-50
[7] = tested on: Monoclonal antibody (mAb); test: Binding affinity against human monoclonal antibody (mAb)-1B3
[8] = target: Monoclonal antibody (mAb); test: Kinetic parameter against Monoclonal antibody mAB-1B3

| SMILES | IC50 ratio [1] | Ki [2] | Ki [3] | IC50 ratio [4] | IC50 ratio [5] | Relative Ki [6] | IC50 ratio [7] | Kd [8] |
| --- | --- | --- | --- | --- | --- | --- | --- | --- |
| C[C@]12CC[C@H](O)C[C@H]1CC[C@@H]1[C@@H]2CC[C@]2(C)[C@@H](C3=CC(=O)OC3)CC[C@]12O [DIGITOXIGENIN] | 16 | 880 nM | 1000 nM | 14 | 14 | 2 | 1800 |  |
| CC(=O)[C@H]1CC[C@H]2[C@@H]3CCC4=CC(=O)CC[C@]4(C)[C@H]3CC[C@]12C [PROGESTERONE] | 69 |  | 36000 nM | 100 | 55 |  | 36000 |  |
| C[C@]12CC[C@H]3[C@@H](CC[C@]4(O)C[C@@H](O)CC[C@]34C=O)[C@@]1(O)CC[C@@H]2C1=CC(=O)OC1 | 84 |  |  | 66 | 470 | 4 | 3000 |  |
| CC(=O)O[C@H]1CC[C@@]2(C)[C@H](CC[C@@H]3[C@@H]2C[C@@H](O)[C@]2(C)[C@@H](C4=CC(=O)OC4)CC[C@]32O)C1 | 110 |  |  | 96 | 140 | 0.7 | 70 |  |
| C[C@@H]1O[C@@H](O[C@H]2C[C@@H](O)[C@]3(CO)[C@H]4[C@H](O)C[C@]5(C)[C@@H](C6=CC(=O)OC6)CC[C@]5(O)[C@@H]4CC[C@]3(O)C2)[C@H](O)[C@H](O)[C@H]1O | 39000 |  |  | 38000 | No inhibition | 7 | 4100 |  |
| CC(=O)O[C@H]1CC[C@]2(C=O)[C@H]3CC[C@]4(C)[C@@H](C5=CC(=O)OC5)CC[C@]4(O)[C@@H]3CC[C@]2(O)C1 | 17 |  |  | 18 | 44 | 10 | 600 |  |
| CO[C@H]1C[C@H](O[C@H]2CC[C@@]3(C)[C@H](CC[C@@H]4[C@@H]3CC[C@]3(C)[C@@H](C5=CC(=O)OC5)[C@@H](OC(C)=O)C[C@]43O)C2)O[C@@H](C)[C@@H]1O | 3200 |  |  | 3100 | No inhibition | 200 | 180 |  |
| C[C@]12CC[C@H](O)C[C@H]1CC[C@@H]1[C@@H]2C[C@@H](O)[C@]2(C)[C@@H](C3=CC(=O)OC3)CC[C@]12O [DIGOXIGENIN] | 4.6 | 1700 nM | 3100 nM | 6.2 | 2.9 | 2 | 2700 |  |
| C[C@H]1O[C@@H](O[C@H]2[C@@H](O)C[C@H](O[C@H]3[C@@H](O)C[C@H](O[C@H]4CC[C@@]5(C)[C@H](CC[C@@H]6[C@@H]5CC[C@]5(C)[C@@H](C7=CC(=O)OC7)[C@@H](O)C[C@]65O)C4)O[C@@H]3C)O[C@@H]2C)C[C@H](O)[C@@H]1O | 81 |  |  | 73 | 130 | 16 | 11 |  |
| C[C@H]1O[C@@H](O[C@H]2CC[C@@]3(C)[C@H](CC[C@@H]4[C@@H]3C[C@@H](O)[C@]3(C)[C@@H](C5=CC(=O)OC5)CC[C@]43O)C2)C[C@H](O)[C@@H]1O | 1 |  |  | 0.9 | 1.3 | 0.6 | 5.9 |  |
| C[C@]12CC[C@H](O)C[C@H]1CC[C@@H]1[C@@H]2CC[C@]2(C)[C@@H](C3=CC(=O)OC3)[C@@H](O)C[C@]12O | 2000 |  |  | 2100 | 2700 | 93 | 4700 |  |
| CO[C@H]1[C@H](O)[C@H](O[C@H]2CC[C@@]3(C)[C@H](CC[C@@H]4[C@@H]3CC[C@]3(C)[C@@H](C5=CC(=O)OC5)CC[C@]43O)C2)O[C@@H](C)[C@@H]1O | 9.5 |  |  | 17 | 21 | 1 | 69 |  |
| C[C@]12C[C@@H](O)[C@H]3[C@@H](CC[C@]4(O)C[C@@H](O)C[C@@H](O)[C@]34CO)[C@@]1(O)CC[C@@H]2C1=CC(=O)OC1 | 13000 |  |  | 6600 | No inhibition | 9 | 52000 |  |
| C[C@@H]1O[C@H](O[C@H]2CC[C@@]3(C)[C@H](CC[C@@H]4[C@@H]3CC[C@]3(C)[C@@H](C5=CC(=O)OC5)CC[C@]43O)C2)[C@@H](O)[C@@H](O)[C@@H]1O | 22 |  |  | 29 | 21 | 0.6 | 40 |  |
| C[C@H]1O[C@@H](O[C@H]2[C@@H](O)C[C@H](O[C@H]3[C@@H](O)C[C@H](O[C@H]4CC[C@@]5(C)[C@H](CC[C@@H]6[C@@H]5C[C@@H](O)[C@]5(C)[C@@H](C7=CC(=O)OC7)CC[C@]65O)C4)O[C@@H]3C)O[C@@H]2C)C[C@H](O)[C@@H]1O [DIGOXIN] | 1 | 0.8 nM | 1.2 nM | 1 | 1 | 1 | 1 | 3.1 nM |
| C[C@H]1O[C@@H](O[C@H]2[C@@H](O)C[C@H](O[C@H]3[C@@H](O)C[C@H](O[C@H]4CC[C@@]5(C)[C@H](CC[C@@H]6[C@@H]5CC[C@]5(C)[C@@H](C7=CC(=O)OC7)CC[C@]65O)C4)O[C@@H]3C)O[C@@H]2C)C[C@H](O)[C@@H]1O [DIGITOXIN] | 8 | 0.2 nM | 0.1 nM | 1.7 | 10 | 1 | 0.3 | 0.6 nM |
| CC(=O)O[C@H]1C[C@]2(O)[C@@H]3CC[C@@H]4C[C@@H](O[C@@H]5C[C@H](O)[C@H](O[C@H]6C[C@H](O)[C@H](O[C@H]7C[C@H](O)[C@H](O)[C@@H](C)O7)[C@@H](C)O6)[C@@H](C)O5)CC[C@]4(C)[C@H]3CC[C@]2(C)[C@H]1C1=CC(=O)OC1 | 330 |  |  | 400 | 290 | 58 | 49 |  |
